Molecular target: T1, MPH-wt (Pseudomonas sp. WBC-3, UniProt Q841S6)
T1 sequence (Q841S6 36-331): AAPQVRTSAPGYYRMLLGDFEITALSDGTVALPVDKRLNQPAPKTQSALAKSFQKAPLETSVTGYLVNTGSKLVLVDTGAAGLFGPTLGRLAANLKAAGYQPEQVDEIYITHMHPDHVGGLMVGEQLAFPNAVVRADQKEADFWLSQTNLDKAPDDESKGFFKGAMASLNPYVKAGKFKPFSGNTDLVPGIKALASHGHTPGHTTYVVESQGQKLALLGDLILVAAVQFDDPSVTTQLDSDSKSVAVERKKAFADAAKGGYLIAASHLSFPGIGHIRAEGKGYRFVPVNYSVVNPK
Test: hydrolysis kinetics, purified enzyme
Type: biochemical

## O=C1CCc2ccccc2O1 [dihydrocoumarin]
  KM: only moderate DHCH activity

— publication doi:10.1101/504811v1 (biorxiv, 2018)
